Test results taken from PMC7377239, “Cardiovascular Effects of Polychlorinated Biphenyls and Their Major Metabolites” (Environmental Health Perspectives, 2020).
Structures can show the parent of a compound that is named as a salt. Where two headings read alike, the source gives them in different places.

Tests used:
[1] = tested on: iCell cardiomyocytes (human iPSC-derived cardiomyocytes); experiment: High-content imaging of cytotoxicity and mitochondrial integrity in iPSC-CMs; type: cell-based; conditions: Homo sapiens, Cardiomyocyte, cardiomyocytes (cm)
How it was run: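 Human iPSC-derived cardiomyocytes were seeded on gelatin-coated 384-well plates at 5,000 cells per well and maintained for 12 d. Test chemicals were added as 10μL of 5× solutions to final concentrations of 0.01 to 100μM. Cells were stained with Hoechst 33342 and MitoTracker™ Orange, fixed in formaldehyde, and imaged by confocal high-content microscopy at 10× magnification.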

HUVECs = experiment: High-content imaging cytotoxicity in HUVECs, 24 h; type: cell-based, human; conditions: Homo sapiens, HUVEC, 24 h, HUVEC, 24 hr
How it was run: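 Point-of-departure values derive from four-parameter logistic fits of vehicle-normalized imaging phenotypes (Hoechst 33342, MitoTracker Orange, calcein AM). The fits follow 24 h exposure of HUVEC monolayers at 37°C and 5% CO2, with a top tested concentration of 100μM.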

[2] = 1.5 h, cam, 90 min, read-out: POD cm.cam.90min
[3] = 1.5 h, mii, 90 min, read-out: POD cm.mii.90min
[4] = 1.5 h, mito, 90 min, read-out: POD cm.mito.90min
[5] = 1.5 h, tc, 90 min, read-out: POD cm.tc.90min
[6] = 24 h, cam, 24 hrs, read-out: POD cm.cam.24hrs
[7] = 24 h, mii, 24 hrs, read-out: POD cm.mii.24hrs
[8] = 24 h, mito, 24 hrs, read-out: POD cm.mito.24hrs
[9] = 24 h, tc, 24 hrs, read-out: POD cm.tc.24hrs
[10] = cyto, read-out: POD huvec.cyto.24hr
[11] = mito, read-out: POD huvec.mito.24hr
[12] = mitoint, read-out: POD huvec.mitoint.24hr
[13] = nma, read-out: POD huvec.nma.24hr
[14] = tc, read-out: POD huvec.tc.24hr

| SMILES | minimal effective concentration [1, 2] | minimal effective concentration [1, 3] | minimal effective concentration [1, 4] | minimal effective concentration [1, 5] | minimal effective concentration [1, 6] | minimal effective concentration [1, 7] | minimal effective concentration [1, 8] | minimal effective concentration [1, 9] | minimal effective concentration (HUVECs; [10]) | minimal effective concentration (HUVECs; [11]) | minimal effective concentration (HUVECs; [12]) | minimal effective concentration (HUVECs; [13]) | minimal effective concentration (HUVECs; [14]) |
| --- | --- | --- | --- | --- | --- | --- | --- | --- | --- | --- | --- | --- | --- |
| Oc1cccc(-c2ccc(Cl)cc2)c1 [3'-OH-PCB 3] | 16 µM | 35 µM | 15 µM | 14.8 µM | 14.1 µM | 23 µM | 14 µM | 15.6 µM | 1.1 µM | 0.97 µM | 41.4 µM | 0.04 µM | 1.1 µM |
| O=S(=O)(O)Oc1cccc(-c2ccc(Cl)cc2)c1 [3'-PCB 3 sulfate] | 100 µM | 89.9 µM | 100 µM | 100 µM | 100 µM | 100 µM | 100 µM | 100 µM | 100 µM | 100 µM | 100 µM | 100 µM | 100 µM |
